# Source: patent US20120196858A1, “METHOD OF PROMOTING APOPTOSIS AND INHIBITING METASTASIS” (Poniard Pharmaceuticals ,Inc., priority 2009, published 2012)
# Legend:
# [1] = target: T1, FAK Tyr-397 phosphorylation (Homo sapiens, UniProt Q05397); assay: Anti-phospho-specific immunoblotting of FAK Tyr-397 in human breast carcinoma cells; type: cell-based
# T1 construct: endogenous in cells; host or cells: MDA-MB-231 human breast carcinoma cells
# Source text: (§1) Immunoblotting: Protein extracts of cells were made using lysis buffer containing 1% Triton X-100, 1% sodium deoxycholate, and 0.1% SDS and were separated by 4-12% SDS-PAGE (sodium dodecyl sulfate polyacrylamide gel electrophoresis) and sequential immunoblotting performed as described in Mitra S K, Lim S T, Chi A, Schlaepfer D D. Intrinsic focal adhesion kinase activity controls orthotopic breast carcinoma metastasis via the regulation of urokinase plasminogen activator expression in a syngeneic tumor model. Oncogene 2006; 25:4429-40. Relative expression levels and phospho-specific antibody reactivity were measured by densitometry analyses of blots using Image J (version 1.42q). Inhibition of FAK and p130Cas tyrosine phosphorylation was quantified by calculating the ratio of pY397 FAK protein to total FAK. Similar analyses were performed for p130Cas using pY410 p130Cas and total p130Cas blot data.
# 4T1 cells [2] = assay: Cell adhesion to fibronectin; type: cell-based, murine
# 4T1 cells [3] = assay: Adherent and suspended (non-adherent) cell growth, cell numbers; type: cell-based, murine
# Experimental: (§2) Anchorage-dependent, spheroid, and soft agar cell growth assays: Cells (2×10^5) were plated per 35 mm well under adherent (tissue culture-treated) and non-adherent conditions (poly-HEMA-coated) in 6-well plates (Costar) in growth media. Between 24 and 168 h, all cells were collected, a single cell suspension was prepared by limited trypsin-EDTA treatment, and viable cells were enumerated by trypan blue staining and counting (ViCell XR, Beckman). For spheroid area determination, cells were imaged after 72 h in phase contrast using an Olympus IX51 microscope. Area was calculated using Image J software (version 1.43). For soft agar assays, 48-well plates were coated with a 1:4 mix of 2% agar (EM Science) in 0.2 ml growth media (bottom layer). 5×10^4 cells were plated per well (in triplicate) in a mixture of 0.3% agar in 0.2 ml growth media (top layer). […] After 10 days, colonies were imaged in phase contrast, enumerated by counting 9 fields (3 fields per well), and total area determined using Image J. For all analyses, experimental points were performed in triplicate and were experiments were repeated at least two times.
# 4T1 cells [4] = assay: Cell cycle analysis by propidium iodide staining and flow cytometry; type: cell-based, murine; conditions: 1.0 μM
# Experimental: (§3) Cell pellets were resuspended in 300 p. 1 of PBS containing propidium iodide (PI) (10 μg/ml), DNAse-free RNAse (100 μg/ml, Qiagen), and then incubated at 37° C. with agitation for 1 h. Samples were analyzed by flow cytometry (FACSCalibur, Becton-Dickinson) and cell cycle analyses were performed by ModFit LT3.2 software (Verity software house). Hypodiploid DNA content as a measure of cell apoptosis was detected by PI staining as described ^29. […] Quadrant gates were positioned based on cell autofluorescence (negative) staurosporine-treated (positive) controls. Apoptosis was calculated to be the percent of annexin V-positive cells. In the soft agar assays, apoptosis was quantified by visual inspection of at least 200 cells and was defined as the appearance of membrane blebbing or cell shrinkage. Apoptosis was also detected by appearance of cleaved caspase-3 antibody reactivity in protein lysates by immunoblotting.
# [5] = tested on: caspase 3 cleavage in 4T1 cells; assay: Cleaved caspase 3 immunoblotting of cell lysates; type: cell-based, murine; conditions: 24 h
# Source text: as §1, with “Similar analyses were performed for p130Cas using pY410 p130Cas and total p130Cas blot data.” left out
# Cell pellets were resuspended in 300 p. […] Samples were analyzed by flow cytometry (FACSCalibur, Becton-Dickinson) and cell cycle analyses were performed by ModFit LT3.2 software (Verity software house). Hypodiploid DNA content as a measure of cell apoptosis was detected by PI staining as described ^29. […] Apoptosis was calculated to be the percent of annexin V-positive cells. In the soft agar assays, apoptosis was quantified by visual inspection of at least 200 cells and was defined as the appearance of membrane blebbing or cell shrinkage. […]
# 4T1 cells [6] = assay: Soft agar colony growth and apoptosis assay; type: cell-based, murine
# Experimental: as §2, §3
# [7] = tested on: ID8 ovarian carcinoma cells; assay: ID8 suspended spheroid cell growth; type: cell-based, murine
# Experimental: as §2, with “Between 24 and 168 h, all cells were collected, a single cell suspension was prepared by limited trypsin-EDTA treatment, and viable cells were enumerated by trypan blue staining and counting (ViCell XR, Beckman).” left out
# [8] = tested on: ID8 ovarian carcinoma cells; assay: Intraperitoneal ID8 ovarian carcinoma tumor growth in C57Bl6 mice; type: in vivo, C57B16 mice
# Experimental: Mouse tumor studies: Six to eight week old female C57B16 and BALB/c mice were obtained from Harlan Laboratories (Indianapolis, Ind.) and housed in pathogen-free conditions, according to the guidelines of the Association for the Assessment and Accreditation for Laboratory Animal Care, International. All in vivo studies were carried out under an approved institutional experimental animal care and use protocol. Growing tumor cells were harvested by limited trypsinization, washed in PBS, and counted using a ViCell XR (Beckman) prior to injection. Cell viability as measured by trypan blue exclusion was >95%. For subcutaneous tumor growth, 1×10^6 mCherry-labeled 4T1 cells in 100 μl PBS were injected into the hindflank of Balb/C mice. […] Control animals received PEG400:PBS injections and at 13 days, tumors were imaged in situ using an Olympus OV100 Intravital Fluorescence Molecular Imaging System, tumors were excised and weighed, half was frozen in OCT, and half was solubilized in protein lysis buffer for FAK phosphorylation analyses. For ID8 ovarian carcinoma tumor growth, 0.8 mL of 1×10^7 ID8 cells in PBS was intraperitoneal injected into C57B16 mice. […] Administration continued ad libitum for 30 days after which mice were euthanized, ascites fluid collected, cells obtained by centrifugation (2000 rpm for 5 min), cell volume measured by pipet, and then solubilized in protein lysis buffer for immunoblotting analyses.
# MDA-MB-231 tumors = assay: Orthotopic MDA-MB-231 breast carcinoma model; type: in vivo, NOD/SCID mice; conditions: 0.5 mg/ml ad libitum
# Experimental: Orthotopic breast cancer models: One million 4T1 or MDA-MB-231 cells in 10 μl PBS were injected into the T4 mammary fat pad of 8-10 week old mice using a Hamilton syringe. […] Tumors were measured every 3-4 days with digital vernier calipers and tumor volume (mm^3) was calculated using the formula: V=axb^2/2 (a=length, mm; b=width, m) Body weight was measured weekly to assess toxicity. Lungs, spleen, and primary tumors were surgically removed and weighed. Tumors sections were homogenized in protein lysis buffer for immunoblotting or placed in Optimal Cutting Temperature (OCT) compound (Tissue Tek), frozen in liquid nitrogen, thin sectioned (7 μM) using a cryostat (Leica 3050S), and mounted onto glass slides.
# Metastatic tumor burden (number of metastatic lesion or mean pixel volume) was determined and groups (Negligible, Moderate, and High) were separated based upon numbers distribution. After imaging, lungs were fixed in Bouin's solution (Sigma), paraffin embedded, sectioned, and stained with hematoxylin and eosin (H&E) for histological evaluation. Images were acquired using a differential interference contrast-equipped Olympus IX81 inverted microscope and an Olympus DP71 digital color camera using Slidebook (v5.0) software. For MDA-MB-231 tumor metastasis studies, lungs were inflated by intratracheal injection of a 1:1 solution of OCT in sterile water using a 25 gauge needle. Lungs were resected, embedded in OCT, and frozen in liquid nitrogen.
# [9] = 0.5 mg/ml ad libitum, 30 treatment days
# T1 sequence (Q05397 whole entry): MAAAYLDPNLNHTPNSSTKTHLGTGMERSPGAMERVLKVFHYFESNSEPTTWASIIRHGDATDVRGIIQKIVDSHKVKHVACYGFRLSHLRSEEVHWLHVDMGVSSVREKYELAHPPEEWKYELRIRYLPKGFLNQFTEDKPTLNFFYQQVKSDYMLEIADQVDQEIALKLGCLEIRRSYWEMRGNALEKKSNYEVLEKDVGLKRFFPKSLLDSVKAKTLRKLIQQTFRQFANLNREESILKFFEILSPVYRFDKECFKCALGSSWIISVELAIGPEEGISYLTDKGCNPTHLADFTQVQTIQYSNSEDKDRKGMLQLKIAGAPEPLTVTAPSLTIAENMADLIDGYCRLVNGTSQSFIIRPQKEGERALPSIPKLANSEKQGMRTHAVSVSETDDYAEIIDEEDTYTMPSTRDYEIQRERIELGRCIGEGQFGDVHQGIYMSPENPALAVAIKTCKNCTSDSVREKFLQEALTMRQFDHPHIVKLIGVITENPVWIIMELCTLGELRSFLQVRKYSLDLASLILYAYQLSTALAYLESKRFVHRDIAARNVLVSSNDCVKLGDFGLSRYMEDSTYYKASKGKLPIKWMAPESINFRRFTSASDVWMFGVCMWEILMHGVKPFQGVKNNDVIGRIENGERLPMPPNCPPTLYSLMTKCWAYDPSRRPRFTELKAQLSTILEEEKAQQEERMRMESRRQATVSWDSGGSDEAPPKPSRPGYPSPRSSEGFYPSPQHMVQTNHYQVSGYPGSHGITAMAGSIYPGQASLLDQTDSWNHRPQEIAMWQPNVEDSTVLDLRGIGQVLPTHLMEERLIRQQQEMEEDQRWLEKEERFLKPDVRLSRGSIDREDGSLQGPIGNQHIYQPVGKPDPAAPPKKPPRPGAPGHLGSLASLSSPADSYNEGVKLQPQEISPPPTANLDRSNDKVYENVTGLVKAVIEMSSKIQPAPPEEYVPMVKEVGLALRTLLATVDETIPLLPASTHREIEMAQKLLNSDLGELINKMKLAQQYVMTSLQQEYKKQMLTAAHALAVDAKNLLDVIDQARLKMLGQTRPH
compound,measurement,setting,value
CNC(=O)c1ccccc1Nc1cc(Nc2ccc(N3CCOCC3)cc2OC)ncc1C(F)(F)F [PND-1186],IC50,[1],~100 nM
same,effect on 4T1 cell adhesion to fibronectin,4T1 cells [2],did not affect 4T1 cell adhesion to fibronectin
same,"reduction of cell number, suspended cells","4T1 cells [3]; 0.1 μM, 72 h, vs DMSO",significant (p<0.001)
same,"cell proliferation, FAK-Cas phosphorylation and cell death","4T1 cells [3]; 100 nM, colonies in soft agar or non-adherent conditions","inhibited cell proliferation, FAK-Cas phosphorylation, and induced cell death"
same,"total cell number, adherent cells","4T1 cells [3]; 1.0 μM, 72 h",decreased in number
same,"total cell number, adherent cells","4T1 cells [3]; 0.1 to 1.0 μM, 24 or 48 h",no differences were observed
same,"total cell number, suspended cells","4T1 cells [3]; all concentrations (0.1 to 1.0 μM), 48 h",reduced cell numbers
same,cytotoxicity to cells in culture,4T1 cells [3]; cells in culture,non-cytotoxic
same,"cell cycle distribution, suspended cells",4T1 cells [4],did not reveal cell cycle differences
same,"cell cycle distribution, adherent cells","4T1 cells [4]; 72 h, vs DMSO",slight accumulation in the S and G2/M phases
same,"sub-diploid (1N) cells, suspended cells",4T1 cells [4]; PI staining,accumulation of sub-diploid (1N) cells
same,"cleaved caspase 3, adherent cells",[5],not detectable
same,"cleaved caspase 3, suspended cells",[5],increased in PND-1186-treated suspended cells (maximal at 0.4 μM)
same,4T1 cell apoptosis (membrane blebbing and cell shrinkage),"4T1 cells [6]; 0.2 μM, soft agar",> 50%
same,total number and size of soft agar colonies,"4T1 cells [6]; 10 days, dose-dependent",inhibited both the total number and size
same,inhibition at 0.2 µM,"4T1 cells [6]; Mus musculus, 4T1, 240 h, 0.2 μM, 10 days, read-out: inhibition of soft agar colony size",77%
same,ID8 cell number,"[7]; 0.1, 0.4, and 1.0 μM, 72 h, suspended spheroids",significantly inhibited ID8 cell number
same,viable ID8 cells,[7]; after 15 days,dramatic reduction in viable cells
same,inhibition of FAK pY397 in ascites cells,[8]; 0.5 mg/ml ad libitum vs 5% sucrose,> 2 fold
same,ascites-associated cells,[8]; [9],lower number of ascites-associated cells
same,swollen abdomens,[8]; [9],did not exhibit swollen abdomens
same,tumor nodules within the peritoneal space,"[8]; 0.5 mg/ml ad libitum, dsRed imaging",significantly fewer tumor nodules
same,adverse effects and body weight,[8]; 0.5 mg/ml in 5% sucrose ad libitum,No adverse effects and no body weight loss
same,"tumor burden, caspase 3 cleavage, tumor TUNEL staining","[8]; 0.5 mg/ml in drinking water of mice, tumor model not named at the place","decreased tumor burden, increased caspase 3 cleavage, and elevated tumor TUNEL staining"
same,FAK pY397 phosphorylation in MDA-MB-231 tumors,MDA-MB-231 tumors,significantly reduce FAK pY397 phosphorylation
same,reduction of number of metastatic lung lesions,MDA-MB-231 tumors,> 3.5 fold
same,tumor size by Day 27 (caliper),MDA-MB-231 tumors; 15 days of administration,control tumors were significantly larger
same,decrease in final tumor weight,MDA-MB-231 tumors; Day 70,> 5 fold
